Results published in PubChem BioAssay (NCI).
Where “and” joins values, the source holds several entries; their conditions need not be identical. Identical values can stand only once.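 Interpolation was linear, between the two tested concentrations surrounding the appropriate level; five concentrations were tested over 48 hours in 96-well plates. GI50 is the concentration that inhibits growth by half. TGI denotes the concentration required for complete inhibition of growth.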

Assays:
Experiment in all cases: inhibition of tumour cell growth, NCI panel, 48 h
OVCAR-5 ovarian = test system: OVCAR-5 ovarian
IGROV1 ovarian = test system: IGROV1 ovarian
UACC-257 melanoma = test system: UACC-257 melanoma
SN12C renal = test system: SN12C renal
786-0 renal = test system: 786-0 renal
SK-MEL-2 melanoma = test system: SK-MEL-2 melanoma
NCI/ADR-RES ovarian = test system: NCI/ADR-RES ovarian
SNB-19 CNS = test system: SNB-19 CNS
DU-145 prostate = test system: DU-145 prostate
MALME-3M melanoma = test system: MALME-3M melanoma

Structure (SMILES)	GI50 (OVCAR-5 ovarian)	TGI (OVCAR-5 ovarian)	GI50 (IGROV1 ovarian)	TGI (IGROV1 ovarian)	GI50 (UACC-257 melanoma)	TGI (UACC-257 melanoma)	GI50 (SN12C renal)	TGI (SN12C renal)	GI50 (786-0 renal)	TGI (786-0 renal)	GI50 (SK-MEL-2 melanoma)	TGI (SK-MEL-2 melanoma)	GI50 (NCI/ADR-RES ovarian)	TGI (NCI/ADR-RES ovarian)	GI50 (SNB-19 CNS)	TGI (SNB-19 CNS)	GI50 (DU-145 prostate)	TGI (DU-145 prostate)	GI50 (MALME-3M melanoma)	TGI (MALME-3M melanoma)
CC(C)c1c(-c2ccccc2)nc2c(C#N)c[nH]n2c1=O	38.8 µM	> 100 µM	34.3 µM	> 100 µM	23.1 µM	66.9 µM	29.2 µM	> 100 µM	35.1 µM	> 100 µM	27.7 µM	78.8 µM	31.2 µM	> 100 µM	30.8 µM	> 100 µM	37.1 µM	> 100 µM	24.3 µM	73.3 µM
CC(C)c1cnn2c(NCc3ccccc3)cc(NC[C@H]3CCNC[C@@H]3O)nc12	0.312 µM and 0.575 µM	6.72 µM and 5.38 µM	0.252 µM and 0.279 µM	11 µM and 10.3 µM	0.656 µM and 0.716 µM	4.78 µM and 5.18 µM	0.327 µM and 0.378 µM	10.5 µM and 6.49 µM	0.547 µM and 0.779 µM	12.3 µM and 12.2 µM	0.334 µM and 0.668 µM	1.63 µM and 2.15 µM	15.4 µM and 19.7 µM	46.9 µM and > 87.5 µM	0.495 µM and 0.611 µM	9.76 µM and 8.48 µM	0.4 µM and 0.309 µM	11.4 µM and 9.62 µM	0.805 µM and 0.3 µM	2.6 µM and 2.72 µM
O=C(NOC[C@H](O)CO)c1ccc(F)c(F)c1Nc1ccc(I)cc1F	< 0.01 µM and 0.0036 µM	> 100 µM	–	> 100 µM	< 0.01 µM and 0.00154 µM	< 0.01 µM and 0.00947 µM	–	> 100 µM	21.6 µM and > 10 µM	> 100 µM	< 0.01 µM and 0.00337 µM	–	12.3 µM and 6.3 µM	> 100 µM	20.6 µM	> 100 µM	11.3 µM and 1.67 µM	> 100 µM	< 0.01 µM	< 0.01 µM and 0.00323 µM
CCOC(=O)Nc1nc2ccc(OC)cc2s1	> 100 µM	> 100 µM	> 100 µM	> 100 µM	> 100 µM	> 100 µM	> 100 µM	> 100 µM	> 100 µM	> 100 µM	> 100 µM	> 100 µM	> 100 µM	> 100 µM	> 100 µM	> 100 µM	> 100 µM	> 100 µM	> 100 µM	> 100 µM
COc1cc2nc(SCc3cc(OC)c(OC)c(OC)c3)n(Cc3ccccc3)c(=O)c2cc1OC	16.3 µM	> 100 µM	7.82 µM	> 70.5 µM	5.25 µM	> 100 µM	7.65 µM	> 100 µM	5.34 µM	27.3 µM	2.92 µM	16.8 µM	2.33 µM	26.6 µM	5.4 µM	48.2 µM	5.38 µM	> 100 µM	2.83 µM	27 µM
COc1ccccc1C#Cc1ccccc1C#CCCCCO	16.8 µM	34.1 µM	15.3 µM	32.2 µM	20.6 µM	38.8 µM	17.5 µM	34.5 µM	13.6 µM	29.7 µM	20.1 µM	41.6 µM	21.9 µM	47.4 µM	16.7 µM	32.8 µM	14.3 µM	29.5 µM	22.4 µM	65.6 µM
